The results in this text go back to paper PMC3755730 (The Journal of neuroscience : the official journal of the …, 2013).

Assay [1] has as its target N2A (GluN2A), in N1/N2A (A-type) NMDA receptor (Mus musculus, UniProt P35436). Briefly: whole-cell patch clamp, EPSC dose-inhibition in N2B knockout neurons. Format: cell-based. On the technique in general: In patch-clamp work, channel activity is measured electrically.
The target in assay [2] is N2B (GluN2B), in N1/N2B (B-type) NMDA receptor (Mus musculus, UniProt Q01097). Briefly: whole-cell patch clamp, EPSC dose-inhibition in N2A knockout neurons. It counts as cell-based.
Sequence of N2B (GluN2B), in N1/N2B (B-type) NMDA receptor (Q01097 27-1482, other chains not shown): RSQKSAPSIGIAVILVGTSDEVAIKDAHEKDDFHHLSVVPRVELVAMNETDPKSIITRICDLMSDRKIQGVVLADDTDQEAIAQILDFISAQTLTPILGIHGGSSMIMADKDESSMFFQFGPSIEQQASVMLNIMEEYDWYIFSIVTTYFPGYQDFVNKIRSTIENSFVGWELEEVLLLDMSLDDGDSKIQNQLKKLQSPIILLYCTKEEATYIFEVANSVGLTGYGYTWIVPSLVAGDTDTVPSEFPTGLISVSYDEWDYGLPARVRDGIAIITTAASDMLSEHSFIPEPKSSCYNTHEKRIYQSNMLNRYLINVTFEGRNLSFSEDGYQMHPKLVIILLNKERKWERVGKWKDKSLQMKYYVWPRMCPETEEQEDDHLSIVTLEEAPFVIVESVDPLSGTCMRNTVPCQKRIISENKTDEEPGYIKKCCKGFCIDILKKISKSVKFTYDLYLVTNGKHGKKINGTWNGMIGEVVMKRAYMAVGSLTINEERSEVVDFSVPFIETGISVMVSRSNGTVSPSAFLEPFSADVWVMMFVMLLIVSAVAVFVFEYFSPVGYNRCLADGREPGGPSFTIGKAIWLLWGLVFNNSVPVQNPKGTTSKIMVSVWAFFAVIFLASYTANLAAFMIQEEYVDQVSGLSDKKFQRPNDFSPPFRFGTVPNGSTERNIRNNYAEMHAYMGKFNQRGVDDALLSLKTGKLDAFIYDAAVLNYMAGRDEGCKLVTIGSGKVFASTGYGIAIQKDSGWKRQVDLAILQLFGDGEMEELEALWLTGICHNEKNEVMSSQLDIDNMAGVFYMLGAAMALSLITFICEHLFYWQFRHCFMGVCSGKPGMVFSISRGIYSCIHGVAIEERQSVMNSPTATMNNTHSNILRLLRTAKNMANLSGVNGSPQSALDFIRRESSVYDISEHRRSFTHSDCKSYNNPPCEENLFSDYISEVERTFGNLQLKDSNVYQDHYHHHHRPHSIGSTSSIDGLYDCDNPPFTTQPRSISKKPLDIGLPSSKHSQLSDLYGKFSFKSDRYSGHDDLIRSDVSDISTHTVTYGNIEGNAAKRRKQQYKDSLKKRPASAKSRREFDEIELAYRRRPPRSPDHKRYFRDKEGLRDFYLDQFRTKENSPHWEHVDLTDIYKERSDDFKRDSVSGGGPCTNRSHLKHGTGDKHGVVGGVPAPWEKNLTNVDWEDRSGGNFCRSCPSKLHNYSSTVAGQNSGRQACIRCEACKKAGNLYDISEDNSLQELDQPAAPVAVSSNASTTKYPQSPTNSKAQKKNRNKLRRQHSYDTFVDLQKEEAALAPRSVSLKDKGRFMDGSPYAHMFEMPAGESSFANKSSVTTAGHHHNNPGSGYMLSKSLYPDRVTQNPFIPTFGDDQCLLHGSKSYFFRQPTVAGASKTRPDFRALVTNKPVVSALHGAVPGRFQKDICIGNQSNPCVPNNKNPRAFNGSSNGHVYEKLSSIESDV

Sequence of N2A (GluN2A), in N1/N2A (A-type) NMDA receptor (P35436 23-1464, other chains not shown): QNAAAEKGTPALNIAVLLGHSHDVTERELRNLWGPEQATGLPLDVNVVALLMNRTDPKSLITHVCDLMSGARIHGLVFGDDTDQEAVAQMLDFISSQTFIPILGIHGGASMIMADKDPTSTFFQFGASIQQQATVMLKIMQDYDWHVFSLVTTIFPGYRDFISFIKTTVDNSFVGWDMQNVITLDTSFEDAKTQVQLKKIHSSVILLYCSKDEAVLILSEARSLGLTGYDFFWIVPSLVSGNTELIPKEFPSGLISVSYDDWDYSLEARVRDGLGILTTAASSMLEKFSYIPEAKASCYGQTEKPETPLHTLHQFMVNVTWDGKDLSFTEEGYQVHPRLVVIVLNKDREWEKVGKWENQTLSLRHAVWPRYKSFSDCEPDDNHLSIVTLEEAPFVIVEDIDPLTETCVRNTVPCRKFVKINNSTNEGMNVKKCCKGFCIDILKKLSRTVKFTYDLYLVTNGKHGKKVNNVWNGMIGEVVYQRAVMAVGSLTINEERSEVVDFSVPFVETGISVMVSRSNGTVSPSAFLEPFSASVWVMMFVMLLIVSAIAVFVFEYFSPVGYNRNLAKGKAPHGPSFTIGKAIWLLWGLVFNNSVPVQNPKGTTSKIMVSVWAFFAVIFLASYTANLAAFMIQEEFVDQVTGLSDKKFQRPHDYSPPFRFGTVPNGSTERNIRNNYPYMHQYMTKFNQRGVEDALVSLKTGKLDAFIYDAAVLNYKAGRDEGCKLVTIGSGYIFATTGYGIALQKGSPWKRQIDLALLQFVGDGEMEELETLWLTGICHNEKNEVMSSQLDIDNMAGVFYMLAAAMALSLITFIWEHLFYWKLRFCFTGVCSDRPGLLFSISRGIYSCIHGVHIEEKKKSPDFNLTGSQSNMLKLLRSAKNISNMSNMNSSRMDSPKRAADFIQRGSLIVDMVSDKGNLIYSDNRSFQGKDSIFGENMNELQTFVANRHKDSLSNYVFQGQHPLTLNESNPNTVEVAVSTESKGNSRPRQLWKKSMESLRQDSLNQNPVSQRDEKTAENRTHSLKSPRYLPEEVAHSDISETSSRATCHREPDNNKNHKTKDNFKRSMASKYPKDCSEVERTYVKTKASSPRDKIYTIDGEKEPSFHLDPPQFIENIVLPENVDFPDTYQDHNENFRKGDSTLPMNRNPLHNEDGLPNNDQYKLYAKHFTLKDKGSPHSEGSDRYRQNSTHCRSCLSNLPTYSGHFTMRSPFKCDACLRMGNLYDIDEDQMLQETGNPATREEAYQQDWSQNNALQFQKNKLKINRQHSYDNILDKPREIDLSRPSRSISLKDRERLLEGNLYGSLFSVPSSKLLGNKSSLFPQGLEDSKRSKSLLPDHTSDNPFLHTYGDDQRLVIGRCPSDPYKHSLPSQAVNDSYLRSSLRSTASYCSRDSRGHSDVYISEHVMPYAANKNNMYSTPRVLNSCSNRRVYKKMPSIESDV

For orientation: IC50 means the concentration that inhibits the measured activity by half. Consider `C[C@H](N[C@@H](c1cccc2[nH]c(=O)c(=O)[nH]c12)P(=O)(O)O)c1ccc(Br)cc1` [NVP-AAM077], for which the values for the IC50 in assay [1] and in assay [2] were 10 nM and 119 nM, respectively.
